Assay [1] has as its target T1, Orexin/Hypocretin receptor type 1 (Homo sapiens) (UniProt O43613).
T1 sequence (whole entry): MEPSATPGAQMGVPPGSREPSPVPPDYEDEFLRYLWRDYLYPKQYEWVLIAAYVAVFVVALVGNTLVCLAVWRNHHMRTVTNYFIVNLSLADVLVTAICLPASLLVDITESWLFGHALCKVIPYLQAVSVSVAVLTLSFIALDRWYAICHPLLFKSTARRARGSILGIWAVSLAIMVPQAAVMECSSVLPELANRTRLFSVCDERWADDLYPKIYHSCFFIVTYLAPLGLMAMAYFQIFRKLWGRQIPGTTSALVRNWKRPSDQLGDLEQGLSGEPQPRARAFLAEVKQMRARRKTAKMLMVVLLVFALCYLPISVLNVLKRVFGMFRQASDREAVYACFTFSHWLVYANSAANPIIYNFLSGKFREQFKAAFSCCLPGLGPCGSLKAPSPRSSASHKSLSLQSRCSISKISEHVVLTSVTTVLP
The assay can be described thus: Antagonist activity at human OX1R expressed in CHOK1 cells assessed as inhibition of orexin A-induced intracellular Ca2+ release at 10 uM preincubated for 15 mins followed by orexin A addition by Fura 2-AM dye based fluorescence assay […]. It is filed as functional, cell-based.

For assay [2], the target named is T2, Orexin/Hypocretin receptor type 1 (Homo sapiens, UniProt O43613).
T2 sequence (O43613 whole entry): T1 sequence (whole entry)
The assay can be described thus: Antagonist activity at human OX1R expressed in CHOK1 cells assessed as inhibition of orexin A-induced intracellular Ca2+ release preincubated for 15 mins followed by orexin A addition by Fura 2-AM dye based fluorescence assay based by Cheng-Prusoff equation analysis. It is filed as functional, cell-based.

With `COc1ccc2c3c1O[C@H]1[C@@H](N(C)C(=O)/C=C/c4ccoc4)CC[C@](O)([C@@H]31)[C@H](N(CC1CC1)S(=O)(=O)c1ccccc1)C2`, in assay [1], the inhibition (in general, the percentage by which the read-out fell short of the control) is 11%.

For the molecule `COc1ccc2c3c1O[C@@H]1[C@H]3[C@@H](CC[C@H]1N(C)C(=O)/C=C/c1ccoc1)[C@H](N(CC1CC1)S(=O)(=O)c1ccccc1)C2`, the Ki – broadly, a dissociation constant, usually derived from enzyme kinetics or from competition with a known ligand – in assay [2] was 20.9 nM. In the case of `COc1ccc2c3c1O[C@H]1[C@H](N(C)C(=O)/C=C/c4ccoc4)CC[C@](O)([C@@H]31)[C@H](N(CC1CC1)S(=O)(=O)c1ccccc1)C2`, the Ki in assay [2] is 101 nM. On the same count and under the same terms, to `COc1ccc2c(c1)[C@H]1C[C@H](N(C)C(=O)/C=C/c3ccoc3)CC[C@@]1(O)[C@H](N(CC1CC1)S(=O)(=O)c1ccccc1)C2` belongs 842 nM.

(Values after ChEMBL document CHEMBL4385659, “Essential structure of orexin 1 receptor antagonist YNT-707, Part IV: The role of D-ring in 4,5-epoxymorphinan on the orexin 1 receptor antagonistic activity” (Bioorg Med Chem Lett, 2019).)
